The source of these data is patent US20050014766A1, “Use of n-(indolecarbonyl-)piperazine derivatives” (priority 2002, published 2005).

SMILES strings stand for the structures.

The test system of one assay is rats. Briefly: T-labyrinth learning and memory model in rats. The class given is in vivo, rat. Conditions: after denial of food. The source says: In a learning and memory model in rats, the T-labyrinth method is used, in which rats, after denial of food, have to learn to find a reward in the arm of the labyrinth which is opposite the arm in which the reward was offered in the previous experiment (Moran, P. et al., Brain Res. 1992; 569:156-158).

Assay [1] concerns mice. Description: isolation-induced fighting behaviour in mice (aggression model). Type of assay: in vivo, mouse. The source says:
A typical animal model of aggression is the isolation-induced fighting behaviour in mice (Paivarinta, P., Pharmacol. Biochem. Behav., 1992; 42: 35-39; Haller, J. et al., Psychopharmacology, 1996; 126: 345-350). […] The number of bites or bite attacks can be used as a measure of the aggression.

Assay [2] relates to mice. Description: hyperlocomotory activity induced by dizocilpine. The class given is in vivo, mouse. The source says:
Animal models of treatment-resistant schizophrenia and psychosis in tardive dyskinesia are so-called stimulant-induced psychoses (Ellison, G., Brain Res. Rev. 1994; 137:193-197). Chronic misuse of ‘dopamine agonists’, such as, for example, amphetamine or cocaine, or antagonists of N-methyl-D-aspartate (NMDA), such as, for example, ketamine, phencyclidine and dizocilpine, causes a syndrome of behavioural effects which has many features in common with the symptom complex of schizophrenia, i.e. these substances induce schizophrenia-like symptoms in healthy people and accelerate psychotic reactions in stabilised schizophrenic patients (Luby, E. D. et al., Am. Med. Assoc. Arch. Neurol. Psychiatry, 1959; 119:61-67; Lahti, A. C. et al., Neuropsychopharmacology, 1995; 13:9-19; Malhotra, A. K. et al., Neuropsychopharmacology, 1996; 14:301-307; Adler, C. M. et al., Biol. Psychiatry 1998; 43:811-816). In rodents, these stimulants cause extreme hyperlocomotory activity (Schaefer, G. J. et al., Neuropharmacology 1984; 23:909-914; Millan, M. J. et al., Eur. J. Neurosci. 1999; 11:419-432; O'Neill, M. F. et al., Psychopharmacology, 1999, 145:237-250).

The test system of assay [3] is mice. Description: four plate test (model of acute stress anxiety). The class given is in vivo, mouse. The following applies: 5 minute test period. From the text: A typical model of acute stress anxiety is the “four plate test” as described by C. Aron et al., Neuropharmacology 1971, 10: 459-469.
The device consists of a small box whose base is composed of four metal plates. Each time the mouse moves from one plate to the next, it receives a short current pulse on the foot, thus reducing the investigative behaviour. The number of changes from one plate to the next which occur with punishment (i.e. the number of current pulses accepted by the animal) is recorded over a test period of 5 minutes.

Assay [4] relates to mice. Briefly: light-dark choice test (model of generalised anxiety disorders). Type of assay: in vivo, mouse. Conditions: period of 5 minutes. Here is the method:
A typical model of generalised anxiety disorders is the “light-dark choice test” as described by J. N. Crawly, Pharmacol. Biochem Behav. 1981, 15: 695-699.
The corresponding device for the selection of brightness or darkness consists of two boxes connected to one another, one box being darkened and the other being brightly illuminated. A mouse is placed in one of the boxes, and it is measured how much time the mouse spends in the illuminated box over a period of 5 minutes. Normal mice only go into the illuminated compartment rarely and spend almost all the time in the dark compartment.

The subject of assay [5] is recombinant in-bred mice (crossing of the strains C57ML/6J and DBA/2J). Briefly: pre-pulse inhibition in recombinant in-bred mice with inherently poor pre-pulse inhibition. The class given is in vivo. The following applies: recombinant mouse strain with poor pre-pulse inhibition. The source says:
A typical animal model of schizotypical personality disorders and the prevention of schizophrenia in first-degree relatives is restricted pre-pulse inhibition. Pre-pulse inhibition is a non-species-specific phenomenon in which the normal reflex reactions to discrete sensory events are reduced if slight prior stimulation has been carried out in advance; pre-pulse inhibition can be used to assess sensomotory gating processes. In patients with schizotypical personality disorders and their first-degree relatives (in whom there is a high risk of the development of schizotypical personality disorders), the normal function of pre-pulse inhibition is disturbed (Braff, D. et al., Psychophysiology, 1978; 15:339-343; Braff, D., Arch Gen Psychiatry, 1992; 49:206-215; Bolino, F. et al., Biol Psychiatry, 1994; 36:670-679). Recombinant in-bred mice having an inherently poor pre-pulse inhibition (crossing of the strains C57ML/6J and DBA/2J) represent a corresponding animal model (McCaughran, J. A. Jr. et al., Psychopharmacology 1997; 134:131-140; McCaughran, J. A. Jr. et al., Behav. Genetics, 1999; 29:21-30.).

The subject of the next assay is monkeys. Briefly: DMTS method (delayed matching to sample) in monkeys. Type of assay: in vivo, monkey. The source says: Of the learning models, the DMTS method (DMTS=delayed matching to sample) in monkeys (Buccafusco, J. J. et al., Psychopharmacology, 1995; 120: 256-266; Buccafusco, J. J. et al., Drug Dev. Res., 1996; 38: 196-203; Prendergast, M. A. et al., Pharmacol. Biochem. Behav., 1997; 56: 81-87) is potentially of interest since the various aspects of learning and memory can be measured in this method. An experiment begins with the illumination of a sample key provided with one of three coloured discs. The monkeys are taught to press the illuminated sample key in order to initiate the experiment. After the delay interval, the two keys available for selection illuminate, but not the sample key. One of the two keys available for selection is offered with the colour that the sample key had before the delay interval, while the other (wrong) key available for selection has one of the two other colours. If the monkey makes the correct assignment (i.e. if it presses the key available for selection which has the same colour as the stimulus key), the response is rewarded. […] Finally, all stimulus equalisation measures were assigned to the delay duration. […]

As for `N#Cc1c[nH]c2c(C(=O)N3CCN(CCc4ccc(F)cc4)CC3)cccc12` [(3-cyano-1H-indol-7-yl)[4-(4-fluorophenethyl)piperazin-1-yl]methanone], the “learning and memory in the T-labyrinth” value in the assay with rats was “has memory-promoting effects in the learning process and facilitates better and faster learning with a shorter performance time”. In addition, the isolation-induced fighting behaviour result in the assay on mice [1] is given as “reduces the isolation-induced fighting behaviour”. In the assay with mice [2], the “hyperlocomotory activity induced by dizocilpine” value is “significantly reduces hyperlocomotory activity”. In the assay on mice [3], the “number of changes with punishment” value was “increases the number of changes with punishment”. Moreover, the “time spent by the mice in the illuminated compartment” value in the assay on mice [4] was “increases the time spent by the mice in the illuminated compartment”. In addition, in assay [5], the “deficits in pre-pulse inhibition” value was “significantly reduces the deficits in pre-pulse inhibition”. Moreover, the “DMTS hit rate and general aspects of working memory” value in the assay with monkeys is “clearly improves the DMTS hit rate”.
